The source of these data is ChEMBL document CHEMBL1136064, “The synthesis and characterization of BMS-204352 (MaxiPost) and related 3-fluorooxindoles as openers of maxi-K potassium channels” (Bioorg Med Chem Lett, 2002).

Data set [1] has as its target Calcium-activated potassium channel subunit alpha-1 KCNMA1 (Homo sapiens) (UniProt Q12791). The data set is described as follows: Evaluation of maxi-K opening in Xenopus laevis oocytes injected with Hslo1 channels as percent of control current at a concentration of 20 uM. To be noted: Oocyte.
Data set [2] shares this target. As to the kind of experiment: Evaluation of maxi-K opening in Xenopus laevis oocytes injected with Hslo1 channels as percent of control current at 20 uM. To be noted: Oocyte.
The subject of data set [3] is HEK293. The data set is described as follows: Tested for the effect on whole cell maxi-K current in HEK 293 cells at 100 nM. It counts as functional, Homo sapiens. Details: unit not given here.
Data set [4] can be described thus: Evaluated for half-life after iv administration of 5 mg/kg to male Sprague-Dawley rats in brain. It counts as ADME, organism-based. Details: dose 5 mg/kg, route intravenous. Particulars: rat.
Data set [5] in a line: Evaluated for half-life after iv administration of 1 mg/kg to male Sprague-Dawley rats in plasma. It counts as ADME, organism-based. Details: dose 1 mg/kg, route intravenous. To be noted: rat.
A short description of data set [6]: Evaluated for plasma clearance after iv administration of 5 mg/kg to male Sprague-Dawley rats. It is filed as ADME, organism-based. Details: dose 5 mg/kg, route intravenous. To be noted: rat.
For data set [7], the system named is HEK293. As to the kind of experiment: Tested for the effect on whole cell maxi-K current in HEK 293 cells at 10 nM. It is filed as functional, Homo sapiens.
A short description of data set [8]: Ratio of brain AUC versus plasma AUC. It counts as ADME, cell-free. Particulars: rat.
In data set [9] the test system is HEK293. As to the kind of experiment: Tested for the effect on whole cell maxi-K current in HEK 293 cells at 1000 nM. It counts as functional, Homo sapiens.
Data set [10] can be described thus: Evaluated for AUC after iv administration of 5 mg/kg to male Sprague-Dawley rats in plasma. Particulars: rat. It is filed as ADME, organism-based. Details: dose 5 mg/kg, route intravenous.
The nature of data set [11]: Evaluated for half-life after iv administration of 5 mg/kg to male Sprague-Dawley rats in plasma. To be noted: rat. Details: dose 5 mg/kg, route intravenous. It is filed as ADME, organism-based.
Data set [12] in a line: Evaluated for Volume of distribution after iv administration of 5 mg/kg to male Sprague-Dawley rats. It is filed as ADME, organism-based. Details: dose 5 mg/kg, route intravenous. Particulars: rat, in vivo, read-out: Volume of distribution.
The nature of data set [13]: Evaluated for AUC after iv administration of 1 mg/kg to male Sprague-Dawley rats in plasma. It is filed as ADME, organism-based. Particulars: rat. Details: dose 1 mg/kg, route intravenous.
Data set [14] is described as follows: Evaluated for AUC after iv administration of 5 mg/kg to male Sprague-Dawley rats in brain. It counts as ADME, organism-based. On the set-up: dose 5 mg/kg, route intravenous. To be noted: rat.

Each structure is given as a SMILES string. Where “and” joins values, the source holds several entries; their conditions need not be identical. Equal values may be shown once.

Sequence of Calcium-activated potassium channel subunit alpha-1 KCNMA1 (Homo sapiens) (Q12791 whole entry, looked up): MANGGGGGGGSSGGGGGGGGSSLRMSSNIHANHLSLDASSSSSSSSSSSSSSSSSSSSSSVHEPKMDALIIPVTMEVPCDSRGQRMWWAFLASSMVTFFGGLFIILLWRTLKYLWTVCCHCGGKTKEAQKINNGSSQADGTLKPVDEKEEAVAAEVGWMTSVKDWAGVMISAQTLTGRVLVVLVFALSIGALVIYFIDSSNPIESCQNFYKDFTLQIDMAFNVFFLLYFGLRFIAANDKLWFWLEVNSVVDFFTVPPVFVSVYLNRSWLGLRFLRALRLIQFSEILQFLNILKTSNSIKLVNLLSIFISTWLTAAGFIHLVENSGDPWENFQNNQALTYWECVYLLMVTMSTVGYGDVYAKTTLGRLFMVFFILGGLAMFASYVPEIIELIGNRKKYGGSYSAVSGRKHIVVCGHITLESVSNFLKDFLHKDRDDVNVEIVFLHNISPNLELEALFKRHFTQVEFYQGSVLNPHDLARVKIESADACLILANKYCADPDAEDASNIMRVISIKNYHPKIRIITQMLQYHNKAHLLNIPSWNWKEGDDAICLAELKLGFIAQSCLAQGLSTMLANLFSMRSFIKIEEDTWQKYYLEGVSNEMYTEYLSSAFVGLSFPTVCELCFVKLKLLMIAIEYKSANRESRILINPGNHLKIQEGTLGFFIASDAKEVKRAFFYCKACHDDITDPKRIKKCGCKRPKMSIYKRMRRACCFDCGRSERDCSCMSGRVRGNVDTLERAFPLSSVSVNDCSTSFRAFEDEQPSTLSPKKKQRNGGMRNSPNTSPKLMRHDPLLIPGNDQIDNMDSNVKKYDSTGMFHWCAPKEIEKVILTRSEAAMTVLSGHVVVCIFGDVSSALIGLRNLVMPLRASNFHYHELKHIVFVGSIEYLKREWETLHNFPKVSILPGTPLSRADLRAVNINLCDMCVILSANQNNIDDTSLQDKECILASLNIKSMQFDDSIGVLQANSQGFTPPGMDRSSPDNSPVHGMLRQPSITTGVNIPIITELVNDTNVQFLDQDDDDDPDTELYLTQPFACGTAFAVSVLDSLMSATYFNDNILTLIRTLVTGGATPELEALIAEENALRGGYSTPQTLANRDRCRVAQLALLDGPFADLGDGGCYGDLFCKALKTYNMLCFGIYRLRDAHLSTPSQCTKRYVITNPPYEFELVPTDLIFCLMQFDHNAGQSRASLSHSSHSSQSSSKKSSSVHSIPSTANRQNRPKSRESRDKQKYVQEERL

On to `O=C1Nc2cc(C(F)(F)F)ccc2C1(F)c1ccccc1` (stereo not drawn), for which the remaining activity at 20 µM in data set [1] came to 107%.

Take `O=C1Nc2ccccc2C1(F)c1ccccc1` (stereo not drawn): in data set [2], the remaining activity at 20 µM stood at 100%.

On to `COc1ccc(Cl)cc1C1(F)C(=O)Nc2c(C(F)(F)F)cccc21` (stereo not drawn), for which the Maxi-K current with HEK293 [3] was 131.9 and 169.6.

In the case of `COc1ccc(Cl)cc1[C@]1(F)C(=O)Nc2cc(C(F)(F)F)ccc21` [FLINDOKALNER], the half-life (usually the time needed for the level to fall by half in the phase considered) in data set [4] is 1.6 h; in [5], 1.8 h; in [11] it was 1.9 h. Besides, the clearance (commonly the volume of plasma or blood freed of the substance per unit of time) in data set [6] stood at 51.5 mL/min/kg. Besides, the Maxi-K current came to 127.8 in the data set on HEK293 [7], 247.4 in the data set on HEK293 [9] and 185.3 with HEK293 [3]. For the same compound, the Kp (in general, the ratio of the level in a tissue or fluid to that in plasma or blood) in data set [8] was determined as 9.6. Further, the results for the AUC in data set [10], in data set [13] and in data set [14] were 3000 ng·h/mL, 320 ng·h/mL and 28800 ng·h/mL, respectively. Also, the Vd in data set [12] is 5.8 L/kg.

`COc1ccc(Cl)cc1[C@@]1(F)C(=O)Nc2cc(C(F)(F)F)ccc21`: the Maxi-K current in the data set with HEK293 [7] was 105; in the data set with HEK293 [9], 205.3; with HEK293 [3] it was 164.4.
